This is an account of results in paper PMC7827085 (Pharmaceutics, 2021).

Like-named read-outs stand apart in the source and are kept apart here.

Series [1] addresses T1, ABCG2/BCRP (Homo sapiens, UniProt Q9UNQ0).
T1 sequence (Q9UNQ0 1-655): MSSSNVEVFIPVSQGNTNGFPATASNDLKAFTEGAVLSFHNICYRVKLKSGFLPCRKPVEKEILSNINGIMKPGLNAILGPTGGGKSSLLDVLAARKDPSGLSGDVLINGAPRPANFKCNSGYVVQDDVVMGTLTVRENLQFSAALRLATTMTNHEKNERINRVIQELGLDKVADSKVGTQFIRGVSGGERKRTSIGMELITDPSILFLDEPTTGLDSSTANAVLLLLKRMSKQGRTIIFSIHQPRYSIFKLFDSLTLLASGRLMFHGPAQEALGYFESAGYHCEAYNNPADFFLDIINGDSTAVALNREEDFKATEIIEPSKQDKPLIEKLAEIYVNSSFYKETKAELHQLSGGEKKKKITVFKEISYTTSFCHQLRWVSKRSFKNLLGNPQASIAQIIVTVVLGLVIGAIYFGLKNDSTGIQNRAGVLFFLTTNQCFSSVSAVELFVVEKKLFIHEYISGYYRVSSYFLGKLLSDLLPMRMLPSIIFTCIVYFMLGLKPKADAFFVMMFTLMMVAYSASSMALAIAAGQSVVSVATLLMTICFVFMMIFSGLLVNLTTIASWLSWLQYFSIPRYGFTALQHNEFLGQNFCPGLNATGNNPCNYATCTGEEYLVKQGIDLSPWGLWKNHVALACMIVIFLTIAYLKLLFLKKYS
Put plainly: in vitro. Particulars: read-out: Estimated Transporter Inhibition IC50, ABCG2 vesicular assay; ATP-dependent lucifer yellow uptake, HEK-293/ABCG2 vesicles; relative to 1 µM Ko143; '-' = no inhibition. The procedure: These were employed at 37 °C for 10 min (ABCG2), 1 min (ABCB1), or 3 min (ABCC1), with or without 4 mM Mg-ATP, in a 50 μL final volume. The known reference inhibitors of the transporters (1 µM Ko143 for ABCG2, 1 µM Valspodar for ABCB1, and 200 µM Benzbromarone for ABCC1) served as controls. Each test compound was dissolved in DMSO and a 1 µL volume was added to the samples. After incubation, the samples were filtered and washed, and the substrates in the vesicles were dissolved in 10% SDS and transferred onto another plate. After the addition of a stabilizer, the fluorescence was measured in plate readers (Victor X3 and Enspire Perkin-Elmer, Waltham, MA, USA), while the activity of the radiolabeled substrate was measured by liquid scintillation counting (Perkin Elmer MicroBeta2 liquid scintillation counter, Perkin Elmer, Waltham, MA, USA). ABC transporter-related vesicular transport was calculated by subtracting uptake measured in the presence of Mg-AMP from the values measured in the presence of Mg-ATP.
The effects of the test compounds on ABCG2 activity were also measured in a vesicular transport assay by using inverted membrane vesicles prepared from HEK-293 cells expressing high levels of the ABCG2 transporter.

Series [2] addresses T2, OATP2B1 (Homo sapiens, UniProt O94956).
T2 sequence (O94956 1-709): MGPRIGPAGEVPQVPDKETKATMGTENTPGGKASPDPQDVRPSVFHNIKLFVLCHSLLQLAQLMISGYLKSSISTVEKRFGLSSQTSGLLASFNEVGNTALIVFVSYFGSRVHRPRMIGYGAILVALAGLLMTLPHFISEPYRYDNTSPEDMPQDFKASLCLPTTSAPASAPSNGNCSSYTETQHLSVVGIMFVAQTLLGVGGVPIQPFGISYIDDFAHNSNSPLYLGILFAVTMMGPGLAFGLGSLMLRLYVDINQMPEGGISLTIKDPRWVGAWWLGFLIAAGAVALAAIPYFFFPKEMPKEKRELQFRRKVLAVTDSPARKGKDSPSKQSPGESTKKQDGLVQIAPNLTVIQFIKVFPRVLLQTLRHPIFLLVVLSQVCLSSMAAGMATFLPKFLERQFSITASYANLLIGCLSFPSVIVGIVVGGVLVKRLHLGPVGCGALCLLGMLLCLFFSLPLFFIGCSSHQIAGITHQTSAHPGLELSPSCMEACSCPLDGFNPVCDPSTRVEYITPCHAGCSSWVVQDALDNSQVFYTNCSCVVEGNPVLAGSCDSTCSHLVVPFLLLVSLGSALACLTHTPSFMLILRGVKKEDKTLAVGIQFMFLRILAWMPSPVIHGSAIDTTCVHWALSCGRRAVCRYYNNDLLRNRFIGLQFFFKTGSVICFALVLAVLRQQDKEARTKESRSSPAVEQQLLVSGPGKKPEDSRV
Particulars: read-out: Estimated Transporter Inhibition IC50, OATP2B1 cellular assay; 20 µM pyranine uptake, 15 min, pH 5.5, A431-OATP2B1 cells; '-' = no interaction.

Series [3] concerns the target T3, ABCB1/MDR1/Pgp (Homo sapiens, UniProt P08183). Put plainly: in vitro. Particulars: read-out: Estimated Transporter Inhibition IC50, ABCB1 cellular assay; Calcein-AM extrusion, PLB-985/ABCB1 cells; relative to full inhibition by 0.25 µM tariquidar; '-' = no significant inhibition. The procedure: (§1) For the ABC transporter assays, we used both cell-based and membrane-based functional assays. […] The respective transport activities were assayed by measuring the cellular fluorescence of the respective transported substrates Phengreen (ABCG2) and Calcein (ABCB1 and ABCC1).
The cells were kept on ice until the flow cytometry measurements. All experiments were performed in triplicate and in at least three biological parallels.
(§2) The cells were kept on ice until the flow cytometry measurements. All experiments were performed in triplicate and in at least three biological parallels. […] The PhenGreen (PG) or Calcein signal was detected in the BL1 channel (emission filter: 530/30 nm). Analysis of the data was carried out by the Attune Nxt Cytometer Software v3.1.2 (Thermo Fischer Scientific, Waltham, MA, USA). The inhibition of transporter activity was calculated by comparing the fluorescence in the presence of the test compound to that in the presence of a specific inhibitor providing maximum inhibition. […] Half-maximum inhibition (IC50) values were calculated by using the Origin2019 software (9.6.5.169, OriginLab Corporation, Northampton, MA, USA). […] In these experiments, we measured Hoechst dye extrusion in HeLa cells stably expressing eGFP and the ABCG2 variants driven by the same promoter—the transgenic cells generated by the Sleeping Beauty transposon system. […] For details, see Zámbó et al.). […] The maximum inhibition was defined for each variant as the fluorescence difference of the samples incubated with and without Ko143, respectively. […] Data analysis was performed using the Attune Nxt Cytometer Software v3.1.2. Two samples per condition and three biological replicates were examined in each experiment.
ABCB1 is a high-affinity active efflux transporter of the viability dye Calcein-AM (CaAM). […] Here, we applied this widely used cellular assay (see https://www.solvobiotech.com/services/categories/dye-efflux-assays) to characterize drug interactions of the applied compounds in intact PLB-985 cells, expressing high levels of the ABCB1 protein.

The test system of series [4] is OATP2B1. On the set-up: method as in PMID 22541068. Particulars: 20 µM ivermectin, different test substrate; cited from earlier work.
The subject of series [5] is SARS-CoV-2. Particulars: cited from earlier work.
Series [6] deals with T3, ABCB1/MDR1/Pgp. Particulars: read-out: Estimated Transporter Inhibition IC50, ABCB1 vesicular assay; ATP-dependent NMQ uptake, HEK-293/ABCB1 inverted membrane vesicles; '-' = no inhibition.
Series [7] concerns the target T1, ABCG2/BCRP. The series is described as follows: in vitro. Particulars: read-out: Estimated Transporter Inhibition IC50, ABCG2 cellular assay; PhenGreen-DA extrusion, PLB-985/ABCG2 cells; relative to 2.5 µM Ko143; '-' = no inhibition. The protocol: as §1, §2
Here, we used both PhenGreen-SK diacetate and Hst dye for these measurements. The PhenGreen (PG) assay is a recently patented method applied for ensuring an efficient ABCG2 transport measurement, as the non-fluorescent PhenGreen diacetate (PG-DA) is actively extruded by ABCG2 and the cellular fluorescence is correlated with ABCG2 transport activity. Therefore, we applied this assay to characterize the test drug interactions in intact PLB-985 cells expressing high levels of the ABCG2 protein. […] ABCG2 inhibition by the test compounds was estimated by their relative (%) inhibition compared to full inhibition by Ko143.

Usually IC50 stands for the concentration that gives 50% inhibition.

T3 sequence (P08183 whole entry): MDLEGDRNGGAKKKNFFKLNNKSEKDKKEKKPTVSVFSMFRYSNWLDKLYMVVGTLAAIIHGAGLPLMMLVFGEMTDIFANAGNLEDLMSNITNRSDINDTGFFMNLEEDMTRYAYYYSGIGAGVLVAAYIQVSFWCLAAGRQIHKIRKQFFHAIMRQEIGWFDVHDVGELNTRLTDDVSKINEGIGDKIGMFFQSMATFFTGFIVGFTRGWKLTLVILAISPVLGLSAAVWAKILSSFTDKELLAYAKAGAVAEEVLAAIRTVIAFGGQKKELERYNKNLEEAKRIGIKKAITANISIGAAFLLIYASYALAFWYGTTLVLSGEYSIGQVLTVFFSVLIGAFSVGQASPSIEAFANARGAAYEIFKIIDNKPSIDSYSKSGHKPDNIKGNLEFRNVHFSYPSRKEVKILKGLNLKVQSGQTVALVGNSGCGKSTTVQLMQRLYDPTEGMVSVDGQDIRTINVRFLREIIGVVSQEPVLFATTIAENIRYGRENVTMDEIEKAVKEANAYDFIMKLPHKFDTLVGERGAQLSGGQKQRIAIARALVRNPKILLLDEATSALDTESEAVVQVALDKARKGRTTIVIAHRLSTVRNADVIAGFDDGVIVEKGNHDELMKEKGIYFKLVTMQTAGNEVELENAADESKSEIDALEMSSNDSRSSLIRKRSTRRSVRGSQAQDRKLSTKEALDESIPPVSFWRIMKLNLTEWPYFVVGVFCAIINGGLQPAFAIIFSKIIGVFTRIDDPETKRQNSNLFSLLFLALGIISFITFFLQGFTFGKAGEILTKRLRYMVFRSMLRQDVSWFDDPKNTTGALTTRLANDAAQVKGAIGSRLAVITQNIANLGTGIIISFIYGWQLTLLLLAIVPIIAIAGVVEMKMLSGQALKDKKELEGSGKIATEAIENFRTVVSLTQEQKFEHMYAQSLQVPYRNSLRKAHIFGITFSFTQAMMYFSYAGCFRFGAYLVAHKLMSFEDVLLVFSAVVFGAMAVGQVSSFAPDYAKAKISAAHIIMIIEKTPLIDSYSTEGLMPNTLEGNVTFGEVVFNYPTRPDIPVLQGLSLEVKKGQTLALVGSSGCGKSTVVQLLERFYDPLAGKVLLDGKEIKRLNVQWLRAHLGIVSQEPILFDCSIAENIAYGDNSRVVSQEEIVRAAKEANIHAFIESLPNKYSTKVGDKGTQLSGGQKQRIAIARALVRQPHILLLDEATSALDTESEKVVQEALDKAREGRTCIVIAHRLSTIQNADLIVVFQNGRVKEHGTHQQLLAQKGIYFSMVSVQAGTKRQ

ivermectin: the IC50 is 1100 nM in series [1]; 8600 nM in series [2]; 600 nM in series [3]; 300 nM in series [6]; 3100 nM in series [7]. Besides, the “OATP2B1 inhibition found by Karlgren et al.” value in series [4] is recorded as 39%. For the same substance, the “Plasma concentrations required to reach an in vitro antiviral efficacy” value in series [5] is 2 to 10 µM.
